Results taken from US20050222040A1, “Vertebrate peptide modulators of lipid metabolism” (BLM Group, Inc., priority 2004, published 2005).
Non-standard residues stand in square brackets, D forms with d. No end group written: not given here. pGlu = O=C1CC[C@@H](C(=O)O)N1

System: human adipocytes
Assay: Glycerol release assay (lipolysis) in differentiated human adipocytes
Assay type: cell-based
Settings: for Percent Glycerol Release over Background / glycerol releasing activity (result in words): human adipocytes in vitro; for lipid mobilization activity of insect AKH/HTP peptides and alanine walk analogs (result in words): Example 2, Table 8 peptides; for glycerol releasing activity (result in words): 100 nanomolar, 1 micromolar and 10 micromolar
Method: Two assay methods, giving equivalent results, can be used. The results disclosed in Example 2, below, were obtained using an in vitro assay based on measurement of glycerol released into the medium. An alternative assay system, based on the release of radioisotope from adipocytes incubated overnight with 9,10 ^3H-palmitate, can also be used.
Human subcutaneous preadipocytes, obtained by liposuction (Zen-Bio, Inc. Research Triangle Park, N.C.), are cultured for 3 weeks in 96-well plates in Differentiation medium (DMEM/Hams F10 [1/1, v/v], 15 mM Hepes buffer, 3% FBS, Penicillin/Streptomycin, 33 uM Biotin 17 uM Pantothenate, 100 nM human insulin, 0.5 uM Dexamethasone, 0.2 mM IBMX, and 10 uM thiazolidinedione.
The assay based on glycerol release is performed by removing the culture medium from differentiated cells, treating the cells with 0.1 ml of the test compounds at the appropriate doses in adipocyte medium (DMEM/Hank's F-10, 15 mM HEPES buffer, 3% FBS, penicillin/streptomycin) followed by incubation at 37 degrees Celsius for 2-5 hours. Isoproterenol is used as positive control and all assays are done in triplicate. At the end of the time points, 0.1 ml of the conditioned media from each well is transferred to a well of a new plate. Glycerol is quantified using standard enzymatic methods, with absorption by oxidized quinoneimine at 540 nm. Briefly, lipolytic activity can be assayed simply by the measurement of glycerol released into the medium since glycerokinase activity is not present in adipocytes (Carpene, C., Methods in Molecular Biology 155: Adipose Tissue Protocols, 1999). Glycerol released to the medium is phosphorylated by adenosine triphosphate (ATP) forming glycerol-1-phosphate (G-1-P) and adenosine-5′-diphosphate (ADP) in the reaction catalyzed by glycerol kinase. G-1-P is then oxidized by glycerol phosphate oxidase to dihydroxyacetone phosphate (DAP) and hydrogen peroxide (H2O2). […] The increase in absorbance at 540 nm is directly proportional to glycerol concentration of the sample.

[1] = peptide concentration 1 micro M
[2] = peptide concentration 10 micro M

Compound	Percent Glycerol Release over Background (peptide concentration 100 nM) [%]	Percent Glycerol Release over Background [1] [%]	Percent Glycerol Release over Background [2] [%]	lipid mobilization activity of insect AKH/HTP peptides and alanine walk analogs (result in words)	glycerol releasing activity (result in words)
CC(C)NCC(O)c1ccc(O)c(O)c1 (stereo not shown) [Iso, Isoproterenol, reference compound]	213	262	206	–	–
QLNFTASW [Peptide 53]	3.8	36.8	18.9	–	–
QLNFTASW-NH2 [Peptide 54]	2.8	4.7	8.5	–	–
QLNFTASWG [Peptide 52]	0.9	13.2	17	–	–
QLNFTASWG-NH2 [Peptide 72]	18	11.3	18.9	–	–
pGlu-Leu-Asn-Phe-Ser-Thr-Gly-TrpNH2 ([pGlu]LNFSTGW-NH2; SMILES CC(C)C[C@H](NC(=O)[C@@H]1CCC(=O)N1)C(=O)N[C@@H](CC(N)=O)C(=O)N[C@@H](Cc1ccccc1)C(=O)N[C@@H](CO)C(=O)N[C@H](C(=O)NCC(=O)N[C@@H](Cc1c[nH]c2ccccc12)C(N)=O)[C@@H](C)O; listed as Schistocerca gregaria) [SEQ ID NO: 17, reference compound]	–	–	–	active	–
pGlu-Leu-Asn-Phe-Thr-Ala-Ser-Trp ([pGlu]LNFTASW; listed as Homo sapiens) [Peptide 60]	–	–	–	–	no measurable activity
pGlu-Leu-Asn-Phe-Thr-Ala-Ser-Trp-Gly ([pGlu]LNFTASWG; listed as Homo sapiens) [Peptide 51]	3.8	24.5	34.9	–	–
pGlu-Leu-Asn-Phe-Thr-Ala-Ser-Trp-GlyNH2 ([pGlu]LNFTASWG-NH2; SMILES CC(C)C[C@H](NC(=O)[C@@H]1CCC(=O)N1)C(=O)N[C@@H](CC(N)=O)C(=O)N[C@@H](Cc1ccccc1)C(=O)N[C@H](C(=O)N[C@@H](C)C(=O)N[C@@H](CO)C(=O)N[C@@H](Cc1c[nH]c2ccccc12)C(=O)NCC(N)=O)[C@@H](C)O; listed as Homo sapiens) [Peptide 73]	0	0.9	3.8	–	low activity
pGlu-Leu-Asn-Phe-Thr-Ala-Ser-TrpNH2 ([pGlu]LNFTASW-NH2; SMILES CC(C)C[C@H](NC(=O)[C@@H]1CCC(=O)N1)C(=O)N[C@@H](CC(N)=O)C(=O)N[C@@H](Cc1ccccc1)C(=O)N[C@H](C(=O)N[C@@H](C)C(=O)N[C@@H](CO)C(=O)N[C@@H](Cc1c[nH]c2ccccc12)C(N)=O)[C@@H](C)O; listed as Homo sapiens) [Peptide 55]	1.9	5.7	13.2	–	low activity
pGlu-Leu-Asn-Phe-Thr-Pro-Asn-Trp-Gly-ThrNH2 ([pGlu]LNFTPNWGT-NH2; SMILES CC(C)C[C@H](NC(=O)[C@@H]1CCC(=O)N1)C(=O)N[C@@H](CC(N)=O)C(=O)N[C@@H](Cc1ccccc1)C(=O)N[C@H](C(=O)N1CCC[C@H]1C(=O)N[C@@H](CC(N)=O)C(=O)N[C@@H](Cc1c[nH]c2ccccc12)C(=O)NCC(=O)N[C@H](C(N)=O)[C@@H](C)O)[C@@H](C)O; listed as Locusta migratoria) [SEQ ID NO: 18, reference compound]	–	–	–	active	–
pGlu-Leu-Thr-Phe-Thr-Ser-Ser-Trp-GlyNH2 ([pGlu]LTFTSSWG-NH2; SMILES CC(C)C[C@H](NC(=O)[C@@H]1CCC(=O)N1)C(=O)N[C@H](C(=O)N[C@@H](Cc1ccccc1)C(=O)N[C@H](C(=O)N[C@@H](CO)C(=O)N[C@@H](CO)C(=O)N[C@@H](Cc1c[nH]c2ccccc12)C(=O)NCC(N)=O)[C@@H](C)O)[C@@H](C)O; listed as Manduca sexta) [SEQ ID NO: 23, reference compound]	–	–	–	active	–
pGlu-Val-Asn-Phe-Ser-Pro-Gly-Trp-Gly-ThrNH2 ([pGlu]VNFSPGWGT-NH2; SMILES CC(C)[C@H](NC(=O)[C@@H]1CCC(=O)N1)C(=O)N[C@@H](CC(N)=O)C(=O)N[C@@H](Cc1ccccc1)C(=O)N[C@@H](CO)C(=O)N1CCC[C@H]1C(=O)NCC(=O)N[C@@H](Cc1c[nH]c2ccccc12)C(=O)NCC(=O)N[C@H](C(N)=O)[C@@H](C)O; listed as Blaberus discoidalis) [SEQ ID NO: 19, reference compound]	–	–	–	active	–
